Patent US20240270762A1, “PENICILLIN-BINDING PROTEIN INHIBITORS” (priority 2021, published 2024)
≈ marks a conversion by molar mass, not a printed value. Read-outs that look alike come from different tables or passages of the source.

Experiments:
A. baumannii CDC-0036 = experiment: microbe, parasite or virus in culture; assay type: cell-based; settings: Acinetobacter baumannii, CDC0036, read-out: MIC, A. baumannii CDC-0036
N. gonorrhoeae MS11 = experiment: Liquid broth MIC in Fastidious broth; settings: Neisseria gonorrhoeae
N. gonorrhoeae WHO L = experiment: Liquid broth MIC in Fastidious broth; settings: Neisseria gonorrhoeae
N. gonorrhoeae WHO K = experiment: Liquid broth MIC in Fastidious broth; settings: Neisseria gonorrhoeae
[1] = molecular target: T1, PBP3 from Pseudomonas aeruginosa (PAO1) (Pseudomonas aeruginosa, UniProt G3XD46); experiment: Bocillin-FL fluorescence polarization competition binding, P. aeruginosa PBP3; settings: Binding affinity to P. aeruginosa PBP3; fluorescence polarization competition binding assay using Bocillin-FL; read-out: P. aeruginosa PBP3 Potency
T1 construct: made in house
Summary of the method: (§1)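 Purified PBPs pre-incubated with inhibitor (E. coli PBP3 1.5 μM, 30 min; P. aeruginosa PBP3 0.75 μM, A. baumannii PBP1a 1 μM and PBP3 0.2 μM, 15 min), then Bocillin-FL 0.1 μM (0.05 μM for PBP1a) added; FP read up to 60 min. EC50 = concentration halving bound Bocillin-FL.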

A. baumannii ATCC 17978 = experiment: microbe, parasite or virus in culture; assay type: cell-based; settings: Acinetobacter baumannii, ATCC17978, read-out: MIC, A. baumannii ATCC 17978
P. aeruginosa ATCC 27853 = experiment: microbe, parasite or virus in culture; assay type: cell-based; settings: Pseudomonas aeruginosa, ATCC27853, read-out: Minimum inhibitory concentration, P. aeruginosa ATCC 27853
N. gonorrhoeae WHO Z = experiment: Liquid broth MIC in Fastidious broth; settings: Neisseria gonorrhoeae
A. baumannii CDC-0033 = experiment: microbe, parasite or virus in culture; assay type: cell-based; settings: Acinetobacter baumannii, CDC0033, read-out: MIC, A. baumannii CDC-0033
P. aeruginosa CDC-0110 = experiment: microbe, parasite or virus in culture; assay type: cell-based; settings: Pseudomonas aeruginosa, CDC0110, read-out: Minimum inhibitory concentration, P. aeruginosa CDC-0110
P. aeruginosa CDC-0054 = experiment: microbe, parasite or virus in culture; assay type: cell-based; settings: Pseudomonas aeruginosa, CDC0054, read-out: Minimum inhibitory concentration, P. aeruginosa CDC-0054
P. aeruginosa CDC-0095 = experiment: microbe, parasite or virus in culture; assay type: cell-based; settings: Pseudomonas aeruginosa, CDC0095, read-out: Minimum inhibitory concentration, P. aeruginosa CDC-0095
[2] = molecular target: T2, PBP3 from Escherichia coli (K-12) (Escherichia coli, UniProt P0AD68); experiment: Bocillin-FL fluorescence polarization competition binding, E. coli PBP3
T2 construct: made in house
Summary of the method: as §1

N. gonorrhoeae FA1090 = experiment: Liquid broth MIC in Fastidious broth; settings: Neisseria gonorrhoeae
[3] = tested on: B. humptydooensis ATCC BAA-2767; experiment: microbe, parasite or virus in culture; assay type: cell-based; settings: Burkholderia humptydooensis, ATCCBAA2767, read-out: Minimum inhibitory concentration (MIC), B. humptydooensis ATCC BAA-2767
[4] = MS11, read-out: Minimum Inhibitory Concentration (MIC), N. gonorrhoeae MS11
[5] = read-out: Minimum Inhibitory Concentration (MIC), N. gonorrhoeae WHO L
[6] = read-out: Minimum Inhibitory Concentration (MIC), N. gonorrhoeae WHO K
[7] = read-out: Minimum Inhibitory Concentration (MIC), N. gonorrhoeae WHO Z
[8] = FA1090, read-out: Minimum Inhibitory Concentration (MIC), N. gonorrhoeae FA 1090
[9] = MS11, read-out: Minimum Inhibitory Concentration, MS11
[10] = read-out: Minimum Inhibitory Concentration, WHO L
[11] = read-out: Minimum Inhibitory Concentration, WHO K
[12] = read-out: Minimum Inhibitory Concentration, WHO Z
[13] = FA1090, read-out: Minimum Inhibitory Concentration, FA 1090

T1 sequence (G3XD46 whole entry): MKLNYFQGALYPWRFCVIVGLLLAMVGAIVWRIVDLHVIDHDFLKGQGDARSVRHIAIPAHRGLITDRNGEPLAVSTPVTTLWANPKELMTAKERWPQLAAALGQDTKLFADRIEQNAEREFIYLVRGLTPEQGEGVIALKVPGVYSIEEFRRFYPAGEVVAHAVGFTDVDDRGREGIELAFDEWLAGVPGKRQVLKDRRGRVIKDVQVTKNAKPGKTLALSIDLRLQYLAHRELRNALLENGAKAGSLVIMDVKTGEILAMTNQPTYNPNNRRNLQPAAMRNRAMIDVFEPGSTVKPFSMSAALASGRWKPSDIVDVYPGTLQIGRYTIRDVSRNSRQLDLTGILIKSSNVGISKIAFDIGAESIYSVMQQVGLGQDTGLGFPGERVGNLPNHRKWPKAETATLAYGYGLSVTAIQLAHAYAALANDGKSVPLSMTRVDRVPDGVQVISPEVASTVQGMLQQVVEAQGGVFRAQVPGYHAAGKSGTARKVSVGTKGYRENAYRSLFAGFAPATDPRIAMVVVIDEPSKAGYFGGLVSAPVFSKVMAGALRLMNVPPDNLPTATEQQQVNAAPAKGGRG
T2 sequence (P0AD68 1-577): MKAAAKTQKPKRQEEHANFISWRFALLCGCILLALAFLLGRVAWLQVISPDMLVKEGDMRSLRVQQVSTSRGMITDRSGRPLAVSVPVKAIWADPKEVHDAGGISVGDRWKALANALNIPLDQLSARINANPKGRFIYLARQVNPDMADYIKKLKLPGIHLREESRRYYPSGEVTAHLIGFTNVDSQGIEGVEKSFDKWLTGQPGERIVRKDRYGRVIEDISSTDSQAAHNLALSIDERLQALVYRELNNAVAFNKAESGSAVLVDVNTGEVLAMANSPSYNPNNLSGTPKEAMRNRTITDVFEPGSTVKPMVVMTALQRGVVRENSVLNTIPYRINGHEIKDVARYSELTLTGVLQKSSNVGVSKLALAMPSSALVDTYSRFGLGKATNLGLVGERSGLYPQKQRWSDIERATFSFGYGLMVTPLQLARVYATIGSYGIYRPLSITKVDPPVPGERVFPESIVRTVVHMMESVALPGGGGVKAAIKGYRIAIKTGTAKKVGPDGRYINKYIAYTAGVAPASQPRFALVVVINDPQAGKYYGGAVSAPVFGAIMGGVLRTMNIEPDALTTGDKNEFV

| SMILES | MIC (A. baumannii CDC-0036) | MIC (N. gonorrhoeae MS11; [4]) | MIC (N. gonorrhoeae WHO L; [5]) | MIC (N. gonorrhoeae WHO K; [6]) | IC50 [1] | MIC (A. baumannii ATCC 17978) | MIC (P. aeruginosa ATCC 27853) | MIC (N. gonorrhoeae WHO Z; [7]) | MIC (A. baumannii CDC-0033) | MIC (P. aeruginosa CDC-0110) | MIC (P. aeruginosa CDC-0054) | MIC (P. aeruginosa CDC-0095) | EC50 [2] | MIC (N. gonorrhoeae FA1090; [8]) | MIC [3] | MIC (N. gonorrhoeae MS11; [9]) | MIC (N. gonorrhoeae WHO L; [10]) | MIC (N. gonorrhoeae WHO K; [11]) | MIC (N. gonorrhoeae WHO Z; [12]) | MIC (N. gonorrhoeae FA1090; [13]) |
| --- | --- | --- | --- | --- | --- | --- | --- | --- | --- | --- | --- | --- | --- | --- | --- | --- | --- | --- | --- | --- |
| O=C(NCCCN1CCN(C(=O)NC(C(=O)N[C@H]2Cc3ccc(F)c(C(=O)O)c3OB2O)c2cc(F)c(O)c(O)c2Cl)C(=O)C1=O)c1ccncc1 (stereo partly drawn) [Example 205, (3R)-3-(2-(2-chloro-5-fluoro-3,4-dihydroxyphenyl)-2-(4-(3-(isonicotinamido)propyl)-2,3-dioxopiperazine-1-carboxamido)acetamido)-7-fluoro-2-hydroxy-3,4-dihydro-2H-benzo[e][1,2]oxaborinine-8-carboxylic acid] | < 1 µg/mL | 4 to 8 µg/mL (≈ 5.37 to 10.7 µM) | > 64 µg/mL | > 64 µg/mL | < 10 µM | < 1 µg/mL | < 1 µg/mL | 16 to 32 µg/mL (≈ 21.5 to 43 µM) | 2 to 4 µg/mL (≈ 2.69 to 5.37 µM) | < 1 µg/mL | < 1 µg/mL | < 1 µg/mL | < 10 µM | 1 to 2 µg/mL (≈ 1.34 to 2.69 µM) | < 1 µg/mL |  |  |  |  |  |
| O=C(NCCCS(=O)(=O)N1CCN(C(=O)NC(C(=O)N[C@H]2Cc3ccc(F)c(C(=O)O)c3OB2O)c2cc(F)c(O)c(O)c2Cl)C1=O)c1ccc(O)cc1 (stereo partly drawn) [Example 269, (3R)-3-(2-(2-chloro-5-fluoro-3,4-dihydroxyphenyl)-2-(3-((3-(4-hydroxybenzamido)propyl)sulfonyl)-2-oxoimidazolidine-1-carboxamido)acetamido)-7-fluoro-2-hydroxy-3,4-dihydro-2H-benzo[e][1,2]oxaborinine-8-carboxylic acid] | 8 to 16 µg/mL (≈ 10.1 to 20.1 µM) |  |  |  | < 10 µM | < 1 µg/mL | 2 to 4 µg/mL (≈ 2.51 to 5.03 µM) |  | 8 to 16 µg/mL (≈ 10.1 to 20.1 µM) | 8 to 16 µg/mL (≈ 10.1 to 20.1 µM) | 2 to 4 µg/mL (≈ 2.51 to 5.03 µM) | 8 to 16 µg/mL (≈ 10.1 to 20.1 µM) | < 10 µM |  | > 128 µg/mL | 16 to 32 µg/mL (≈ 20.1 to 40.2 µM) | > 64 µg/mL | > 64 µg/mL | 16 to 32 µg/mL (≈ 20.1 to 40.2 µM) | 4 to 8 µg/mL (≈ 5.03 to 10.1 µM) |
| O=C(NCCN1CCN(C(=O)NC(C(=O)N[C@H]2Cc3ccc(F)c(C(=O)O)c3OB2O)c2cc(F)c(O)c(O)c2Cl)C1=O)c1ccccc1 (stereo partly drawn) [Example 242, (3R)-3-(2-(3-(2-benzamidoethyl)-2-oxoimidazolidine-1-carboxamido)-2-(2-chloro-5-fluoro-3,4-dihydroxyphenyl)acetamido)-7-fluoro-2-hydroxy-3,4-dihydro-2H-benzo[e][1,2]oxaborinine-8-carboxylic acid] | 2 to 4 µg/mL (≈ 2.85 to 5.7 µM) | 16 to 32 µg/mL (≈ 22.8 to 45.6 µM) | > 64 µg/mL | > 64 µg/mL | < 10 µM | < 1 µg/mL | 2 to 4 µg/mL (≈ 2.85 to 5.7 µM) | 16 to 32 µg/mL (≈ 22.8 to 45.6 µM) | 2 to 4 µg/mL (≈ 2.85 to 5.7 µM) | 2 to 4 µg/mL (≈ 2.85 to 5.7 µM) | 2 to 4 µg/mL (≈ 2.85 to 5.7 µM) | 2 to 4 µg/mL (≈ 2.85 to 5.7 µM) | < 10 µM | 1 to 2 µg/mL (≈ 1.42 to 2.85 µM) | 8 to 16 µg/mL (≈ 11.4 to 22.8 µM) |  |  |  |  |  |
| O=C(NCCN1CCN(C(=O)NC(C(=O)N[C@H]2Cc3ccc(F)c(C(=O)O)c3OB2O)c2cc(F)c(O)c(O)c2Cl)C(=O)C1=O)Nc1cccc(O)c1 (stereo partly drawn) [Example 220, (3R)-3-(2-(2-chloro-5-fluoro-3,4-dihydroxyphenyl)-2-(4-(2-(3-(3-hydroxyphenyl)ureido)ethyl)-2,3-dioxopiperazine-1-carboxamido)acetamido)-7-fluoro-2-hydroxy-3,4-dihydro-2H-benzo[e][1,2]oxaborinine-8-carboxylic acid] | 8 to 16 µg/mL (≈ 10.5 to 21 µM) | 16 to 32 µg/mL (≈ 21 to 42.1 µM) | > 64 µg/mL | > 64 µg/mL | < 10 µM | < 1 µg/mL | 2 to 4 µg/mL (≈ 2.63 to 5.26 µM) | > 64 µg/mL | 2 to 4 µg/mL (≈ 2.63 to 5.26 µM) | < 1 µg/mL | 8 to 16 µg/mL (≈ 10.5 to 21 µM) | 8 to 16 µg/mL (≈ 10.5 to 21 µM) | < 10 µM | 1 to 2 µg/mL (≈ 1.31 to 2.63 µM) | 32 to 64 µg/mL (≈ 42.1 to 84.1 µM) |  |  |  |  |  |
| O=C(NCCN1CCN(C(=O)NC(C(=O)N[C@H]2Cc3ccc(F)c(C(=O)O)c3OB2O)c2cc(F)c(O)c(O)c2Cl)C1=O)c1ccc(O)cc1 (stereo partly drawn) [Example 243, (3R)-3-(2-(2-chloro-5-fluoro-3,4-dihydroxyphenyl)-2-(3-(2-(4-hydroxybenzamido)ethyl)-2-oxoimidazolidine-1-carboxamido)acetamido)-7-fluoro-2-hydroxy-3,4-dihydro-2H-benzo[e][1,2]oxaborinine-8-carboxylic acid] | < 1 µg/mL | 16 to 32 µg/mL (≈ 22.3 to 44.6 µM) | > 64 µg/mL | > 64 µg/mL | < 10 µM | < 1 µg/mL | < 1 µg/mL | 16 to 32 µg/mL (≈ 22.3 to 44.6 µM) | 2 to 4 µg/mL (≈ 2.79 to 5.57 µM) | < 1 µg/mL | 2 to 4 µg/mL (≈ 2.79 to 5.57 µM) | 8 to 16 µg/mL (≈ 11.1 to 22.3 µM) | 10 to 50 µM | 4 to 8 µg/mL (≈ 5.57 to 11.1 µM) | 2 to 4 µg/mL (≈ 2.79 to 5.57 µM) |  |  |  |  |  |
| O=C(O)c1c(F)ccc2c1OB(O)[C@@H](NC(=O)C(NC(=O)N1CCN(CCNC(=O)[C@@H]3CCCN3)C1=O)c1cc(F)c(O)c(O)c1Cl)C2 (stereo partly drawn) [Example 248, (3R)-3-(2-(2-chloro-5-fluoro-3,4-dihydroxyphenyl)-2-(2-oxo-3-(2-((S)-pyrrolidine-2-carboxamido)ethyl)imidazolidine-1-carboxamido)acetamido)-7-fluoro-2-hydroxy-3,4-dihydro-2H-benzo[e][1,2]oxaborinine-8-carboxylic acid] | 2 to 4 µg/mL (≈ 2.88 to 5.76 µM) |  |  |  | 10 to 50 µM | < 1 µg/mL | 2 to 4 µg/mL (≈ 2.88 to 5.76 µM) |  | 2 to 4 µg/mL (≈ 2.88 to 5.76 µM) | < 1 µg/mL | 2 to 4 µg/mL (≈ 2.88 to 5.76 µM) | 8 to 16 µg/mL (≈ 11.5 to 23 µM) | 10 to 50 µM |  | < 1 µg/mL | 16 to 32 µg/mL (≈ 23 to 46.1 µM) | > 64 µg/mL | 16 to 32 µg/mL (≈ 23 to 46.1 µM) | 16 to 32 µg/mL (≈ 23 to 46.1 µM) | 4 to 8 µg/mL (≈ 5.76 to 11.5 µM) |
| O=C(NCCCN1CCN(C(=O)NC(C(=O)N[C@H]2Cc3ccc(F)c(C(=O)O)c3OB2O)c2cc(F)c(O)c(O)c2Cl)C(=O)C1=O)Nc1cccc(O)c1 (stereo partly drawn) [Example 206, (3R)-3-(2-(2-chloro-5-fluoro-3,4-dihydroxyphenyl)-2-(4-(3-(3-(3-hydroxyphenyl)ureido)propyl)-2,3-dioxopiperazine-1-carboxamido)acetamido)-7-fluoro-2-hydroxy-3,4-dihydro-2H-benzo[e][1,2]oxaborinine-8-carboxylic acid] | < 1 µg/mL | 16 to 32 µg/mL (≈ 20.6 to 41.3 µM) | > 64 µg/mL | > 64 µg/mL | < 10 µM | < 1 µg/mL | 2 to 4 µg/mL (≈ 2.58 to 5.16 µM) | 16 to 32 µg/mL (≈ 20.6 to 41.3 µM) | 2 to 4 µg/mL (≈ 2.58 to 5.16 µM) | < 1 µg/mL | < 1 µg/mL | < 1 µg/mL | < 10 µM | 1 to 2 µg/mL (≈ 1.29 to 2.58 µM) | < 1 µg/mL |  |  |  |  |  |
| O=C(CN1CCN(C(=O)NC(C(=O)N[C@H]2Cc3ccc(F)c(C(=O)O)c3OB2O)c2cc(F)c(O)c(O)c2Cl)C(=O)C1=O)NCc1cccnc1 (stereo partly drawn) [Example 240, (3R)-3-(2-(2-chloro-5-fluoro-3,4-dihydroxyphenyl)-2-(2,3-dioxo-4-(2-oxo-2-((pyridin-3-ylmethyl)amino)ethyl)piperazine-1-carboxamido)acetamido)-7-fluoro-2-hydroxy-3,4-dihydro-2H-benzo[e][1,2]oxaborinine-8-carboxylic acid] | 2 to 4 µg/mL (≈ 2.74 to 5.47 µM) | 16 to 32 µg/mL (≈ 21.9 to 43.8 µM) | > 64 µg/mL | > 64 µg/mL | < 10 µM | < 1 µg/mL | < 1 µg/mL | 16 to 32 µg/mL (≈ 21.9 to 43.8 µM) | 2 to 4 µg/mL (≈ 2.74 to 5.47 µM) | < 1 µg/mL | < 1 µg/mL | 2 to 4 µg/mL (≈ 2.74 to 5.47 µM) | < 10 µM | 1 to 2 µg/mL (≈ 1.37 to 2.74 µM) | 2 to 4 µg/mL (≈ 2.74 to 5.47 µM) |  |  |  |  |  |
